Measurements from ChEMBL document CHEMBL5625249, “Optimization and antifungal activity of quinoline derivatives linked to chalcone moiety combined with FLC against Candida albicans” (Eur J Med Chem, 2023).
In brackets after ≈: the same amount, converted by molar mass. Activity calls are given as the source filed them. The rule behind the calls is not given here.

What was measured:
Candida albicans [1] = assay: Synergistic antifungal activity against FLC-resistant Candida albicans ATCC 14053 cultured in spider medium assessed as inhibition of hyphal formation at 1 ug/ml measured after 4 to 8 hrs in presence of fluconazole by inverted microscopy; assay type: functional, organism-based; conditions: dose 1.0 µg/ml, time 4-8 hrs
Candida albicans [2] = assay: Induction of mitochondrial membrane potential loss in FLC-resistant Candida albicans ATCC 14053 at 1 ug/mL measured after 16 to 18 hrs in presence of fluconazole by JC-1 staining based fluorescence assay; assay type: functional, organism-based; conditions: dose 1.0 µg/ml, time 16-18 hrs
Candida albicans [3] = assay: Synergistic antifungal activity against clinical FLC-resistant Candida albicans 799 measured after 24 hrs by microdilution method; assay type: functional
Candida albicans [4] = assay: Synergistic antifungal activity against FLC-resistant Candida albicans ATCC 14053 cultured in spider medium assessed as inhibition of hyphal formation at 1 ug/ml measured after 4 to 8 hrs in presence of fluconazole and dibutyryl-cAMP by inverted microscopy; assay type: functional, organism-based; conditions: dose 1.0 µg/ml, time 4-8 hrs
Candida albicans [5] = assay: In vivo antifungal activity against FLC-resistant Candida albicans ATCC 14053 infected in Balb/c mouse assessed as reduction in lung fungal load at 7.5 to 15 mg/kg, ig measured after 6 days in presence of fluconazole; assay type: functional, organism-based; conditions: dose 7.5-15 mg/kg, time 6.0 day
Candida albicans [6] = assay: Antifungal activity against clinical FLC-resistant Candida albicans 381 measured after 24 hrs by microdilution method; assay type: functional
Candida albicans [7] = assay: Synergistic antifungal activity against clinical FLC-resistant Candida albicans 3511 assessed as fractional inhibitory concentration index measured after 24 hrs by microdilution method; assay type: functional
Candida albicans [8] = assay: In vivo antifungal activity against FLC-resistant Candida albicans ATCC 14053 infected in Balb/c mouse assessed as survival rate at 15 mg/kg, ig measured daily for 6 days (Rvb < 20%); assay type: functional; conditions: ATCC 14053, po, 144 h, time 6 day
Candida albicans [9] = assay: In vivo antifungal activity against FLC-resistant Candida albicans ATCC 14053 infected in Balb/c mouse assessed as increase in organ coefficients of thymus at 7.5 to 15 mg/kg, ig measured after 6 days in presence of fluconazole; assay type: functional, organism-based; conditions: dose 7.5-15 mg/kg, time 6.0 day
Candida albicans [10] = assay: Synergistic antifungal activity against clinical FLC-resistant Candida albicans 800 measured after 24 hrs by microdilution method; assay type: functional
Candida albicans [11] = assay: Synergistic antifungal activity against FLC-resistant Candida albicans ATCC 14053 assessed as inhibition of rhodamine 6G efflux measured within 30 mins in presence of fluconazole by Rhodamine 6G staining based fluorescence assay; assay type: functional, organism-based
Candida albicans [12] = assay: Synergistic antifungal activity against FLC-resistant Candida albicans ATCC 14053 assessed as inhibition of hyphal formation by measuring down regulation of CYR1 gene expression at 1 ug/ml measured after 16 to 18 hrs in presence of fluconazole by qRT-PCR analysis; assay type: functional, organism-based; conditions: dose 1.0 µg/ml, time 16-18 hrs
Candida albicans [13] = assay: Synergistic antifungal activity against clinical FLC-resistant Candida albicans 187 assessed as fractional inhibitory concentration index measured after 24 hrs in presence of fluconazole by microdilution method; assay type: functional
Candida albicans [14] = assay: Antifungal activity against clinical FLC-resistant Candida albicans 799 measured after 24 hrs by microdilution method; assay type: functional
Candida albicans [15] = assay: In vivo antifungal activity against FLC-resistant Candida albicans ATCC 14053 infected in Balb/c mouse assessed as reduction in internal fungal growth at 7.5 to 15 mg/kg, ig measured after 6 days in presence of fluconazole by H and E staining based histopathological analysis; assay type: functional, organism-based; conditions: dose 7.5-15 mg/kg, time 6.0 day
Candida albicans [16] = assay: Synergistic antifungal activity against clinical FLC-resistant Candida albicans 3816 assessed as fractional inhibitory concentration index measured after 24 hrs by microdilution method; assay type: functional
Candida albicans [17] = assay: Synergistic antifungal activity against clinical FLC-resistant Candida albicans 808 measured after 24 hrs by microdilution method; assay type: functional
Candida albicans [18] = assay: Synergistic antifungal activity against clinical FLC-resistant Candida albicans 550 measured after 24 hrs by microdilution method; assay type: functional
Candida albicans [19] = assay: Synergistic antifungal activity against clinical FLC-resistant Candida albicans 808 assessed as fractional inhibitory concentration index measured after 24 hrs by microdilution method; assay type: functional
Candida albicans [20] = assay: In vivo antifungal activity against FLC-resistant Candida albicans ATCC 14053 infected in Balb/c mouse assessed as restoration of normal kidney morphology at 15 mg/kg, ig measured after 6 days by H and E staining based histopathological analysis; assay type: functional, organism-based; conditions: time 6.0 day
Candida albicans [21] = assay: Synergistic antifungal activity against FLC-resistant Candida albicans ATCC 14053 assessed as reduction in intracellular ATP level at 1 ug/ml measured after 16 to 18 hrs in presence of fluconazole by luminescence assay; assay type: functional, organism-based; conditions: dose 1.0 µg/ml, time 16-18 hrs
Candida albicans [22] = assay: Synergistic antifungal activity against FLC-resistant Candida albicans ATCC 14053 cultured in SD +10% FBS liquid medium assessed as inhibition of hyphal formation at 1 ug/ml measured after 2 hrs in presence of fluconazole by inverted microscopy; assay type: functional, organism-based; conditions: dose 1.0 µg/ml
Candida albicans [23] = assay: Synergistic antifungal activity against FLC-resistant Candida albicans ATCC 10231 assessed as fractional inhibitory concentration index measured after 24 hrs by microdilution method; assay type: functional
Candida albicans [24] = assay: Synergistic antifungal activity against FLC-sensitive Candida albicans SC5314 assessed as fractional inhibitory concentration index measured after 24 hrs in presence of fluconazole by microdilution method; assay type: functional
Candida albicans [25] = assay: In vivo antifungal activity against FLC-resistant Candida albicans ATCC 14053 infected in Balb/c mouse assessed as reduction in infiltration of inflammatory cells at 7.5 to 15 mg/kg, ig measured after 6 days in presence of fluconazole by H and E staining based histopathological analysis; assay type: functional, organism-based; conditions: dose 7.5-15 mg/kg, time 6.0 day
Candida albicans [26] = assay: Synergistic antifungal activity against FLC-resistant Candida albicans ATCC 14053 assessed as fractional inhibitory concentration index measured after 24 hrs by microdilution method; assay type: functional
Candida albicans [27] = assay: Antifungal activity against FLC-sensitive Candida albicans SC5314 measured after 24 hrs by microdilution method; assay type: functional
Candida albicans [28] = assay: Antifungal activity against clinical FLC-resistant Candida albicans 550 measured after 24 hrs by microdilution method; assay type: functional
Candida albicans [29] = assay: Synergistic antifungal activity against Clinical FLC-resistant Candida albicans 23 measured after 24 hrs in presence of fluconazole by microdilution method; assay type: functional
Candida albicans [30] = assay: Antifungal activity against clinical FLC-resistant Candida albicans 800 measured after 24 hrs by microdilution method; assay type: functional
Candida albicans [31] = assay: Synergistic antifungal activity against FLC-resistant Candida albicans ATCC 14053 measured after 24 hrs by microdilution method; assay type: functional
[32] = Toxicity in Balb/c mouse assessed as weight loss at 15 mg/kg, ig measured daily for 6 days; assay type: organism-based; conditions: in vivo, po, 144 h, time 6 day
Candida albicans [33] = assay: Synergistic antifungal activity against clinical FLC-resistant Candida albicans 799 assessed as fractional inhibitory concentration index measured after 24 hrs by microdilution method; assay type: functional
Candida albicans [34] = assay: Antifungal activity against clinical FLC-resistant Candida albicans 187 measured after 24 hrs by microdilution method; assay type: functional
Candida albicans [35] = assay: Antifungal activity against clinical FLC-resistant Candida albicans 3816 measured after 24 hrs by microdilution method; assay type: functional
Candida albicans [36] = assay: Synergistic antifungal activity against clinical FLC-resistant Candida albicans 4508 assessed as fractional inhibitory concentration index measured after 24 hrs by microdilution method; assay type: functional
[37] = Cytotoxicity against human 16-HBE cells assessed as cell survival at 90 ug/ml measured after 24 hrs by MTS assay relative to control; assay type: toxicity, cell-based; conditions: 16-HBE cells (16HBE14o-), at 90 µg/mL, read-out: Survival

CN1CCN(c2nc3ccccc3cc2/C=C/C(=O)c2ccc(N3CCN(Cc4ccc(C(F)(F)F)cc4)CC3)cc2)CC1
inhibition (Candida albicans [1]): Active
Activity (Candida albicans [2]): Active
MIC80 (Candida albicans [3]): 1.12 µg/mL
inhibition (Candida albicans [4]): inactive
Activity (Candida albicans [5]): inactive
MIC80 (Candida albicans [6]): > 40 µg/mL
fractional inhibitory concentration index (FICI) (Candida albicans [7]): 0.15
survival at 15 mg/kg (Candida albicans [8]): 30%
Activity (Candida albicans [9]): Active
MIC80 (Candida albicans [10]): 1.28 µg/mL
inhibition (Candida albicans [11]): inactive
inhibition (Candida albicans [12]): Active
fractional inhibitory concentration index (FICI) (Candida albicans [13]): 0.01
MIC80 (Candida albicans [14]): > 40 µg/mL
Activity (Candida albicans [15]): Active
fractional inhibitory concentration index (FICI) (Candida albicans [16]): 0.03
MIC80 (Candida albicans [17]): 0.38 µg/mL
MIC80 (Candida albicans [18]): 5.9 µg/mL
fractional inhibitory concentration index (FICI) (Candida albicans [19]): 0.01
Activity (Candida albicans [20]): inactive
Activity (Candida albicans [21]): Active
inhibition (Candida albicans [22]): inactive
fractional inhibitory concentration index (FICI) (Candida albicans [23]): 0.14
fractional inhibitory concentration index (FICI) (Candida albicans [24]): 0.21
Activity (Candida albicans [25]): Active
fractional inhibitory concentration index (FICI) (Candida albicans [26]): 0.02
MIC80 (Candida albicans [27]): 27.8 µg/mL (≈ 46.3 µM)
MIC80 (Candida albicans [28]): > 40 µg/mL
MIC80 (Candida albicans [29]): 1.2 µg/mL
MIC80 (Candida albicans [30]): > 40 µg/mL
MIC80 (Candida albicans [31]): 0.87 µg/mL
Activity [32]: Non-Toxic
fractional inhibitory concentration index (FICI) (Candida albicans [33]): 0.03
MIC80 (Candida albicans [34]): > 40 µg/mL
MIC80 (Candida albicans [35]): > 40 µg/mL
fractional inhibitory concentration index (FICI) (Candida albicans [36]): 0.03
viability at 24 h, 90 ug/ml [37]: 76.5%
